Source: publication PMC4398458, “Reversible Linkage of Two Distinct Small Molecule Inhibitors of Myc Generates a Dimeric Inhibitor with Improved Potency That Is Active in Myc Over-Expressing Cancer Cell Lines” (PLoS ONE, 2015)

B1: E-box oligonucleotide (dsDNA)
DNA 1: GATCAGTTGACCACGTGGTCTGGG
DNA 2: CCCAGACCACGTGGTCAACTGATC

How the values were obtained:
[1] = target: T1, Myc:Max interaction (Homo sapiens, UniProt P01106); test: Cell-free Myc:Max ELISA; type: biochemical; conditions: average with standard deviation; combinations as equimolar (1:1) titrations, concentration of each monomer; read-out: ELISA (IC50), inhibition of cell-free MYC-MAX heterodimer formation
T1 construct: purchased Origene (Myc); Sino Biologicals (Max)
Description: High binding 96-well plates were coated with GST-conjugated full-length Max protein (Sino Biologicals) at 1ng/μL in 100μl of PBS overnight at 4°C. The plate was washed 4x 200 μl/well with PBS and blocked in 200 μl/well of 5% nonfat dry milk in PBS for 2 hours at room temperature. […] Compounds were serially diluted in 100% DMSO and then sequentially diluted […] into the Myc solution before incubation for one hour at room temperature. For internal consistency, final DMSO concentrations were kept at 2%. The blocked plate was washed 4x 200μl/well with Buffer A, before addition of 100 μl of the Myc compound mixture. Plates were incubated for four hours at RT, and washed 4x 200 μl Buffer A/well. Anti-Myc antibody (Cell Signaling) was diluted 1:1000 in 5% nonfat dry milk in Buffer A. 100 μL/well diluted primary antibody was added to each well and incubated for one hour at room temperature. Plates were washed 4x 200 μl/well Buffer A. HRP-conjugated goat anti-rabbit antibody (GE Healthcare) was diluted 1:5000 in 5% nonfat dry milk in Buffer A. 100 μL/well diluted secondary antibody was added to each well and incubated for thirty minutes at room temperature. The plates were washed 4x 200 μL/well Buffer A. 50 μL/well of FEMTO chemiluminescent reagent (Thermo Scientific) was added, and luminescence was immediately read on a Victor X5 plate reader (PerkinElmer) with a 0.1 sec integration time. IC50s were generated through non-linear fitting of data with prism (GraphPad).
We next asked whether the binding of these dimers to Myc could disrupt the interaction with its transcriptional partner Max. We developed an ELISA using purified Myc and Max protein that allowed us to measure effects on Myc:Max binding. The ELISA plate was initially coated with Max protein and the compounds pre-incubated with Myc protein prior to addition to the Max-coated plate. After extensive washing, Myc binding to Max was detected using an anti-Myc antibody. […] We observe similar effects for the dimeric inhibitor E08+N11 (Table 1).

[2] = target: T2, Max:Max homodimers in complex with E-box DNA (Homo sapiens, UniProt P61244); test: Electrophoretic mobility shift assay (EMSA), Max:Max homodimer binding to DNA; type: biochemical; conditions: cell-free EMSA, E-box oligonucleotide
T2 construct: His-tagged and GST-tagged full-length human Max protein; purchased Sino Biologicals #12885-H20B

[3] = system: Daudi cells; test: Cell proliferation / viability assay and Bliss synergy analysis; type: cell-based; conditions: concentrations up to 30 μM, 3 days
Description: K562 (CCL-243), Daudi (CCL-213), Raji (CCL-86) and MV4-11(CCL-9591) cells were purchased directly from American Type Culture Collection (Manassas, VA) and routinely cultured under recommended conditions. Growth and proliferation was determined by use of Cell Titer 96 Aqueous One Solution (Promega, Madison, WI). All cells were plated at 10,000 cells per well in growth media in a clear 96 well plate. After 3 days of compound treatment reagent was added, and absorbance at 490 nm was read after incubation for 4 hours at 37°C. A control plate of compound diluted in media at the same concentrations was treated in a similar way and these values subtracted from the cell plate data to control for any compound interference in the assay. Synergy was determined using the Bliss model of independence.
We screened pairwise combinations of monomers from our libraries in a cell proliferation assay. Increasing concentrations of each compound were dosed in an 8x6 matrix format and their effects on cell proliferation monitored. […] The majority of the combinations were additive in nature, a result consistent with the combination of the two parent ligands C01 and C02 (S1 Fig.). We identified a number of combinations that were synergistic, and representative graphs showing dose dependent inhibition of proliferation with 2 different combinations (E07+N12 and E08+N11) are shown (Fig. 2 A and B). There was no activity of the individual compounds E07, E08, N12, or N11 in the proliferation assay at concentrations up to 30 μM.
Our cell-free experiments had clearly shown that the ability for self-assembly of the dimer was important in driving the improved inhibitory effect versus the Myc protein. To test this in a cellular context we compared the effect on cell viability of the E08+N11 dimer versus its non-dimerizable control combination E08+C11. […] Similar effects on cell viability and Myc protein levels were also observed for the dimer E07+N12 but not its non-dimerizable control E07+C12 (S5 Fig.).

[4] = target: T3, His-tagged bHLH-LZ domain of human Myc protein (aa353-439) (Homo sapiens, UniProt P01106); test: Surface Plasmon Resonance binding to immobilized Myc; conditions: average KD, equilibrium fit, 25°C; combinations as equimolar titrations; read-out: SPR (Kd), direct MYC binding
T3 construct: human Myc protein (aa353-439, Cayman Chemicals, Ann Arbor, MI); purchased Cayman Chemicals
Description: All SPR experiments were performed on a Bio-Rad XPR36 instrument at 25°C. His-tagged bHLH-LZ domain of human Myc protein (aa353-439, Cayman Chemicals, Ann Arbor, MI) was immobilized in running buffer (20 mM Na-phosphate, pH 7.5, 300 mM NaCl, 4 mM KCl,. 05% Tween20) in the absence of DMSO at 25μL/min for 400 seconds on Bio-Rad HTE (Ni-NTA) chips with a resulting RU value of about 4500 after immobilization. Compound binding was analyzed in the same running buffer with a final DMSO concentration of 2%. Compounds were injected at 30μL/min for 180 seconds with a dissociation time of 300 seconds. Injections consisted of 5 concentrations of compounds plus a blank channel for reference that flowed over all immobilized ligands in a matrix format. Regeneration steps were not required due to the rapid dissociation of compounds. Equilibrium fits were performed with the ProteOn software after inter-spot and reference channel subtractions.
We next analyzed whether these dimeric inhibitors could directly bind to Myc. To do this we developed a Surface Plasma Resonance (SPR) assay to compare the binding affinities of the monomers to that of the dimeric inhibitors. We immobilized the bHLHZip domain of Myc to the surface of a Ni-NTA chip via a His-tag and measured binding affinities for the monomers or dimers. […] We observed similar data with the E08+N11 dimer.

[5] = target: T4, Myc:Max heterodimers in complex with E-box DNA (Homo sapiens, UniProt P01106); test: Electrophoretic mobility shift assay (EMSA), Myc:Max heterodimer binding to DNA; type: biochemical; conditions: cell-free EMSA, E-box oligonucleotide
T4 construct: c-Myc residues Asn352 to Ala439; 6xHis (N); TEV cleavage site (N); purchased Cayman Chemical (Myc, custom expression); Sino Biologicals (Max) #12885-H20B (Max); host or cells: E. coli BL21StarDE3 (Myc)
Description: Human c-Myc (NP_002458.2) containing the bHLH-LZ domain was cloned into a modified pET21a vector and then transformed into the BL21StarDE3 expression system, expressed, and purified at Cayman Chemical. The construct consists of an N-terminal 6xHis tag with a TEV cleavage site, c-Myc residues Asn352 to Ala439, and a GGCD C-terminal extension (molecular weight 12.9 kDa). Compounds were added to 200 ng c-Myc in reaction buffer (100 mM KCL, 1 mM DTT, 1 mM EDTA, 50 mM Tris pH7.4, 5mM MgCl2, 0.002% NP40) and incubated for 60 minutes at room temperature. […] Finally, annealed double-stranded E-box containing DNA oligonucleotide with sequence 5’-[…]-3’ was added to a final concentration of 100 nM for twenty minutes incubation at room temperature. The final concentration of DMSO was kept constant at 2%. The protein-DNA complexes (final volume 10 μl) were resolved on NativePAGE Novex 4–16% Bis-Tris Protein Gels (Life technologies, #BN1002BOX) at 4°C with pre-chilled TBE (89 mM Tris-borate, 1 mM EDTA) at 125V for 90 minutes. SYBR Green EMSA Nucleotide Acid gel stain (Molecular Probes, #E33075) was used to stain dsDNA and DNA-protein complexes. Images were captured with an Alpha Innotech FluorChem Q imager installed with AlphaView software.
The formation of the Myc:Max heterodimer is required for its ability to bind to DNA sequences and trigger transcriptional activation of Myc-dependent genes. […]

[6] = target: Max (human, UniProt P61244 1-160); test: EMSA; Max:Max homodimer, no Myc; EMSA: 100 mM KCl, 1 mM DTT, 1 mM EDTA, 50 mM Tris pH 7.4, 5 mM MgCl2, 0.002% NP40, 2% DMSO, room temperature; 200 ng Myc, 350 ng Max, 100 nM DNA, 10 ul; gel run in TBE at 4 C; conditions: protein: commercial; tags: His and GST; chain copies: 2; label: none (SYBR Green stain); (only one strand given)
Max, sequence (P61244 whole entry): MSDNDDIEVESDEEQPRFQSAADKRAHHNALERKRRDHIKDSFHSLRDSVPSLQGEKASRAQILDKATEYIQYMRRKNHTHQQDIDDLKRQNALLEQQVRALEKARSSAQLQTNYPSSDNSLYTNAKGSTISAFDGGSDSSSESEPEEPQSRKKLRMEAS

T1 sequence (P01106 whole entry): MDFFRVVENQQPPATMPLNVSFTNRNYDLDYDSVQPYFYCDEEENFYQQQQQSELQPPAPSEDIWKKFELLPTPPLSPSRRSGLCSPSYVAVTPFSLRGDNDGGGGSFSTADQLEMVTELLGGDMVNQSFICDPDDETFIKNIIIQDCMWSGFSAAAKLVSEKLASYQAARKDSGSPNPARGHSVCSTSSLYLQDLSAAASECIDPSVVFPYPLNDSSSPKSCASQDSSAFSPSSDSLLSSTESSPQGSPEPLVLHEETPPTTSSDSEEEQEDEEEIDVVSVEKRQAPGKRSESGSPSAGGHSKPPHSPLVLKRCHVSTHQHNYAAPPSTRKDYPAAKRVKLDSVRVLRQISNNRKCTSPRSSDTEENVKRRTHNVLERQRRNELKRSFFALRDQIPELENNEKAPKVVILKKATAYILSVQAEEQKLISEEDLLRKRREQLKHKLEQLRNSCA
T3 sequence (P01106 368-454): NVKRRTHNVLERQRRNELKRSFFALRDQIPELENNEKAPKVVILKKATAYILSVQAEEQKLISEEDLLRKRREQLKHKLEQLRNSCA
T4 sequence (P01106 with tags, fused parts or gaps): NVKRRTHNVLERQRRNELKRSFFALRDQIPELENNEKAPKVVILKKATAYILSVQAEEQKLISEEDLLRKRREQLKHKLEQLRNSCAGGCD

Molecule	IC50 [1] [µM]	effect on Max:Max complex binding to DNA (gel mobility shift) [2]	activity of the individual compounds in the proliferation assay [3]	Kd [4] [µM]	effect on Myc:Max complex binding to DNA (gel mobility shift) [5]	binding result [6]
O=C(NCc1cccc(B(O)O)c1)c1ccccc1Nc1ccc([N+](=O)[O-])c2nonc12 [E07]	24 ± 7.4	Neither of the two monomers, E07 or N12, had any noticeable effect	no activity	42 ± 10	Neither of the two monomers, E07 or N12, had any noticeable effect	
CCc1ccc(/C=C2\SC(=O)N(CC[C@@H]3C[C@H]4C[C@@H]3[C@H](O)[C@@H]4O)C2=O)cc1 [N12]	> 30	Neither of the two monomers, E07 or N12, had any noticeable effect	no activity	> 50	Neither of the two monomers, E07 or N12, had any noticeable effect	
NC(=O)c1ccccc1Nc1ccc([N+](=O)[O-])c2nonc12 [C02, 2-((7-Nitrobenzo[c][1,2,5]oxadiazol-4-yl)amino)benzamide, reference compound]	> 30					
O=C(NCc1ccc(B(O)O)cc1)c1ccccc1Nc1ccc([N+](=O)[O-])c2nonc12 [E08]	> 30		no activity	47 ± 9		
CCc1ccc(/C=C2\SC(=O)N(CCNC(=O)[C@@H]3C[C@@H]4C[C@H]3[C@@H](O)[C@H]4O)C2=O)cc1 [N11]	> 30		no activity	> 50		
CCc1ccc(/C=C2\SC(=O)NC2=O)cc1 [C01, reference compound]	> 30					
CCc1ccc(/C=C2\SC(=O)N(CCNC(=O)[C@@H]3C[C@H]4C=C[C@H]3C4)C2=O)cc1 [C11]	> 30			> 50		
CCc1ccc(/C=C2\SC(=O)N(CC[C@@H]3C[C@@H]4C=C[C@H]3C4)C2=O)cc1 [C12]	> 30			> 50		
B1						binds
